pIC50: −log10 of the molar value.
Target: T1, Prostaglandin G/H synthase 1 (Ovis aries, UniProt P05979)
T1 sequence (P05979 whole entry): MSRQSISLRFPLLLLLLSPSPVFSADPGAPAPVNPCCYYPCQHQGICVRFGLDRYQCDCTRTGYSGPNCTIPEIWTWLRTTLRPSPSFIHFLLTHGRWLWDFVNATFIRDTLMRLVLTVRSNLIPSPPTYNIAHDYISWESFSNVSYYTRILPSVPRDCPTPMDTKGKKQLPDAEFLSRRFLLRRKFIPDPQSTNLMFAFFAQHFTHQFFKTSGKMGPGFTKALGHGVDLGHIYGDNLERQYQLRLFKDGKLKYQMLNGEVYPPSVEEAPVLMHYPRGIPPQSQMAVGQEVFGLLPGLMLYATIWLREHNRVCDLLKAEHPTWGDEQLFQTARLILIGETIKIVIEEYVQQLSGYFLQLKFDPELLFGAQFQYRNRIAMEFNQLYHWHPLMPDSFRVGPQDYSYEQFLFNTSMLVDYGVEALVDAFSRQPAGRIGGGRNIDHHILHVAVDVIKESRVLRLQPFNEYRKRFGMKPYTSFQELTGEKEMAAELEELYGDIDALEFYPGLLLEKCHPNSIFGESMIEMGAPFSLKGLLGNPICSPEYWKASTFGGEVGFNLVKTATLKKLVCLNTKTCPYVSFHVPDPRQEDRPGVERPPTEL
Test: Inhibition of ovine COX1 after 5 mins by enzyme immunoassay

SMILES	pIC50
COc1cc(-n2c(O)ccc2O)cc(OC)c1OC [1-(3,4,5-Trimethoxyphenyl)pyrrolidine-2,5-dione]	< 4.00
Oc1ccc(O)n1-c1cc(Cl)c(Cl)c(Cl)c1 [1-(3,4,5-trichlorophenyl)pyrrolidine-2,5-dione]	< 4.00
Oc1c2c(c(O)n1-c1cc(Cl)c(Cl)c(Cl)c1)C1(Cl)C(Cl)=C(Cl)C2(Cl)C1(Cl)Cl [4,5,6,7,8,8-Hexachloro-2-(3,4,5-trichlorophenyl)-3a,4,7,7a-tetrahydro-1H-4,7-methanoisoindole-1,3(2H)-dione]	< 4.00
COc1cc(-n2c(O)c3c(c2O)C2(Cl)C(Cl)=C(Cl)C3(Cl)C2(Cl)Cl)cc(OC)c1OC [4,5,6,7,8,8-Hexachloro-2-(3,4,5-trimethoxyphenyl)-3a,4,7,7a-tetrahydro-1H-4,7-methanoisoindole-1,3(2H)-dione]	< 4.00
Oc1c2c(c(O)n1-c1cc(Cl)c(Cl)c(Cl)c1)CC=CC2 [cis-2-(3,4,5-Trichlorophenyl)-3a,4,7,7a-tetrahydro-1H-isoindole-1,3(2H)-dione]	< 4.00
COc1cc(-n2c(O)c3c(c2O)CC=CC3)cc(OC)c1OC [cis-2-(3,4,5-Trimethoxyphenyl)-3a,4,7,7a-tetrahydro-1H-isoindole-1,3(2H)-dione]	< 4.00

Reference: BindingDB's records for doi:10.1016/j.ejmech.2011.02.013 (King Saud University, 2011)
